We go through 5 molecules from US8679776B2, “Activatable dyes” (University of Massachusetts, priority 2007, dated 2014).

One data set has as its system CHO-K1 cells. The data set can be described thus: Photoactivation in live mammalian tissue culture cells. In kind it is cell-based. As for the experimental part:
Photoactivation of NVOC-MR121 in live CHO-K1 cells before (a) and after (b, c) brief exposure to DAPI-filtered light (˜100 ms). In (b) the field was limited to two cells, while in (c) the entire field was illuminated (40× objective). Cells were imaged with a Cy5 filter set.
Referring to FIGS. 16A (before) and 16B (after photoactivation), CHO-K1 cells were incubated with 1 μM of NVOC-Oxazine 16 for one hour, then imaged on a fluorescence microscope at 40× with a Cy5 filter set (Zeiss Axiovert 200M). […] All of these latent fluorophores are chemically stable in cells, and can be efficiently photoactivated 24 hours after initial incubation.

Data set [1] is described as follows: Photoactivation of NVOC-Oxazine 16 in vitro (acetonitrile solution, long-wave UV). In kind it is physicochemical. An excerpt:
When novel, non-fluorescent caged dye (16) is irradiated with long-wave UV light (about 360 nm), the NVOC group is photolytically removed, and rapidly decarboxylates to form the oxazine 1 leuco dye (15). The non-fluorescent leuco dye rapidly reacts with oxygen in solution to generate the brightly fluorescent oxazine 1 dye (14). […] In such an evaluation, maximal emission was observed after less than four minutes using a hand-held longwave UV lamp. Irradiation in a fluorescence microscope, with either arc lamp or laser illumination, photoactivates this dye in less than 1 second due to the much higher photon flux through the microscope objective.
Referring to FIGS. 15A and 15B, NVOC-Oxazine 16 was dissolved in acetonitrile (2 mL) and placed in a fluorescence cuvette. The rate of photo-uncaging was monitored by continuous excitation at 365 nm and emission detection at 665 nm in a SPEX Fluoromax-3. Under these conditions, fluorescence activation reached a maximum in approximately two minutes.

Another data set concerns the target T1, Transferrin (Homo sapiens, UniProt P02787).
T1 construct: purchased Sigma-Aldrich
The data set can be described thus: Labeling of transferrin with caged dye, SDS-PAGE imaged before and after photoactivation. Conditions: for near-IR fluorescence before photoactivation / near-IR fluorescence after photoactivation: 630 nm excitation, 670 nm long pass filter; for near-IR fluorescence after photoactivation: hand-held longwave UV lamp for 1 min. As for the experimental part: FIG. 20 is an SDS-PAGE gel of transferrin labeled with a caged oxazine dye, imaged before and after photoactivation. Transferrin in lanes 1-3 is labeled with NVOC-MR121 (25). Lanes 4-6 are labeled with tetramethyl-rhodamine (TMR).
Transferrin (Sigma-Aldrich®, 5 mg) was dissolved in 0.5 ml of 0.1M NaHCO3, pH 8.3. The caged oxazine dye 25 (0.2 mg) in 0.02 ml of DMSO and added to the transferrin solution and incubated at room temperature for one hour. The labeled protein was separated from the dye on a PD-10 column, and analyzed by SDS-PAGE (FIG. 20). The transferrin conjugate was initially non-fluorescent (FIG. 20a).

T1 sequence (P02787 20-698, species assumed): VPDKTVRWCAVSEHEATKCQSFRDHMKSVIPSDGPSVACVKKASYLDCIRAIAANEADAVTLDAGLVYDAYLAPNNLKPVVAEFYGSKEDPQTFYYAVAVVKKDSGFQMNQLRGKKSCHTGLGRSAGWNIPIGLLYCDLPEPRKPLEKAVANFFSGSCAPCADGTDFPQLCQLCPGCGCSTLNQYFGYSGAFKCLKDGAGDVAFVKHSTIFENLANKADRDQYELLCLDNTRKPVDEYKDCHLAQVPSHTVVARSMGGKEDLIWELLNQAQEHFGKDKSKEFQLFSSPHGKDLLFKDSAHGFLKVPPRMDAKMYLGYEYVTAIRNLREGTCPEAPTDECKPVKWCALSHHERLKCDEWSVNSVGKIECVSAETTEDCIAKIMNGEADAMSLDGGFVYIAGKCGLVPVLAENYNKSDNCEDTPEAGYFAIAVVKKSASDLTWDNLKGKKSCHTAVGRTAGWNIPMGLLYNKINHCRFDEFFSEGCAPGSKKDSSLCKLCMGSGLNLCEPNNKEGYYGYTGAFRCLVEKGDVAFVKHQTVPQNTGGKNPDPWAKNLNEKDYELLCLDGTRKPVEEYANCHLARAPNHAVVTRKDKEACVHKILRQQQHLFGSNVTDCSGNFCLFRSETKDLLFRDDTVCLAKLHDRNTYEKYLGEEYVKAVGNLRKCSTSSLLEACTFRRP

Take Bis-NH NVOC-Oxazine [Compound 41]: the “staining pattern after photoactivation” value in the data set with CHO-K1 cells is listed as “more diffuse staining”.
For the molecule NVOC-Oxazine [Compound 16], the “time to maximal emission after exposure to long-wave UV light” value in data set [1] (acetonitrile solution, hand-held longwave UV lamp, emission about 665 nm) is “less than four”. The “time for fluorescence activation to reach a maximum” value in data set [1] (acetonitrile, continuous excitation at 365 nm, emission detection at 665 nm, SPEX Fluoromax-3) was “approximately two”. Besides, in data set [1] (arc lamp or laser illumination through the microscope objective), the “time to photoactivate in a fluorescence microscope” value is “less than 1 second”. Besides, the cell permeability result with CHO-K1 cells is on record as “cell-permeable”. The “cellular fluorescence after brief exposure to DAPI-filtered light” value with CHO-K1 cells (1 μM, one hour incubation, 365 nm, <1 second, Cy5 filter set) is “dramatic increase in cellular fluorescence”.
Take “transferrin conjugate: transferrin labeled with caged oxazine dye NVOC-MR121 NHS ester 25”: the “near-IR fluorescence before photoactivation” value with Transferrin (SDS-PAGE) was “non-fluorescent”; with Transferrin (SDS-PAGE, listed as labeled transferrin), “No near-IR fluorescence is visible”. Further, the results for the “near-IR fluorescence after photoactivation” value with Transferrin and with Transferrin (listed as labeled transferrin) were “bright near-IR fluorescence” and “brightly fluorescent in the near-IR”, respectively.
With `CCN(CC)c1ccc2nc3ccc(=[N+](CC)CC)cc-3oc2c1.[O-][Cl+3]([O-])([O-])[O-]` [oxazine 1, reference compound], the maximal emission result in data set [1] (active dye generated by uncaging) is given as “about 665 nm”.
Regarding “TMR-Tf: transferrin labeled with tetramethyl-rhodamine (TMR) [reference compound]”, the “fluorescence before photoactivation, TMR channel” value with Transferrin (SDS-PAGE, 520 nm excitation and 575DF20 filter) is listed as “readily visible”.
